Experimental data from patent US20120022070A1, “Heat Shock Protein 90 Inhibitors, Methods Of Preparing Same, And Methods For Their Use” (EMORY UNIVERSITY, priority 2008, published 2012).
Like-named read-outs stand apart in the source and are kept apart here.

How the values were obtained:
[1] = system: tumor specific Hsp90 (NCI-N417 cell lysate); experiment: Hsp90 binding FP competition assay; design: species or system human
Source text: There are several assays that have been developed to identify novel Hsp90 inhibitors based on the interaction of small molecules with recombinant Hsp90 protein, either yeast or human. To measure a therapeutically significant state of Hsp90, an FP assay that uses human cancer cell lysates instead of recombinant protein (Du, Moulick et al. J. Biomol. Screen, 2007, 12, 915-24) was utilized. It probes the interaction of small molecules with tumor-specific Hsp90 and may therefore lead to inhibitors that are not only selective for cancer cells but also specific for a particular malignancy.
The dose-response effect of the compounds was tested in Hsp90 binding FP competition assays to obtain the IC50 of the compounds. The Hsp90 FP competition assay was performed in 384-well black plate using the small-cell lung carcinoma (SCLC) cell line NCI-N417 as a source of tumor specific Hsp90 and the Cy3B-labeled geldanamycin (GM-cy3B) as the FP ligand. The compound was dissolved in DMSO and added at several concentrations to the reaction buffer containing both GM-cy3B (5 nM) and NCI-N417 cell lysate (1 μg/well) in a final volume of 50 μL. Free GM-cy3B (5 nM) and bound GM-cy3B with NCI-N417 cell lysate (5 nM GM-cy3B and 1 μg/well of NCI-N417 cell lysate) were included as controls in each plate. After incubating at room temperature for 2 to 16 hours, the polarization values were measured and expressed as millipolarization (mP) units using Analyst HT plate reader (Molecular Devices). The competitive efficiency of the compounds were expressed as a percentage of control and calculated according to the following equation:
% of control=((mPc−mPf)/(mPb−mPf))×100
where mPc is the recorded mP from compound wells, mPf is the average recorded mP from GM-cy3B-only wells, and mPb is the average recorded mP from wells containing both GM-cy3B and NCI-N417 lysate. IC50 values were determined using a nonlinear regression analysis as implemented in Prism 4.0 (Graphpad Software).

[2] = system: Her2 protein in MCF-7 breast cancer cells; experiment: Cell-based Her2 degradation assay by Western Blot; details: Homo sapiens
Source text: Addition of Hsp90 inhibitors to cancer cells induces the proteasomal degradation of a subset of proteins involved in signal transduction such as Raf1 kinase, Akt and certain transmembrane tyrosine kinases such as Her2. Thus, Her2 degradation in cells is a functional read-out of Hsp90 inhibition. Correlation between Hsp90 binding and Her2 degradation in cancer cells is indicative of a selective biological effect in these cells via Hsp90.
A Western blot-based assay was used to measure the cellular level of Her2 protein in MCF-7 breast cancer cell lysates collected after 24 hours of compound treatment. […] Then 2×10^5 cells were seeded in 24 well plates in 500 μl PRMI1640 medium and allowed to attach overnight. The compounds were dissolved in DMSO, added to the wells, and incubated for 24 hours. The cells were washed using ice-cold phosphate-buffered saline (PBS) and lysed in 1% NP40 lysis buffer (10 mM HEPES, pH 7.4, 150 mM NaCl, 1% Nonident P-40, 5 mM Pyrophosphate, 5 mM NaF, 2 mM Orthovanadate, 10 ug/ml Aprotinin, 10 ug/ml Leupeptin, 1 mM PMSF). After boiling with 6×SDS sample buffer, the cell lysates were separated by SDS-PAGE and transferred to nitrocellulose membrane. The membranes were blocked with 5% milk in tris-buffered saline buffer.

[3] = system: SKBR3 breast cancer cells; experiment: Cancer cell growth inhibition assay (CellTiter-Blue); type: cell-based; details: Homo sapiens, SK-BR-3, Table 2, 96 hours
Description: The effects of the compounds on cancer cell growth were determined using the CellTiter-Blue cell viability assay (Promega). CellTiter-Blue® Cell Viability is based on the ability of living cells to convert a redox dye (resazurin) into a fluorescent end product (resorufin).
The SKBR3 breast cancer cells were plated in 384-well microtiter plates (Costar) and allowed to attach overnight. After treatment with either compounds or vehicle (DMSO) for 96 hours, the cells were measured for their viability by CellTiter-Blue. Briefly, 10 μl of CelTiter-Blue were added to each well in 384-well plates and incubated at 37° C. for 4 hours. The fluorescence intensity (FI) was measured using the Analyst HT plate reader (Molecular Devices) with an excitation at 545 nm and emission at 595 nm. The IC50 was calculated as the compound concentration that inhibits cell viability by 50% compared with vehicle control wells. The IC50 values were determined as described above.

[4] = system: Her2 protein in SKBr3 breast cancer cells; experiment: Cell-based Her2 degradation assay by Cytoblot; details: Homo sapiens, SK-BR-3, Table 2, values with asterisk, 24 hours
Description: Cellular Her2 level after compound treatment was also monitored by microtiter-based Her2 degradation assay, Cytoblot assay (Huezo, Vilenchik et al. Chem. Biol., 2003, 10, 629-634). This is a cell-based assay that enables the quantitative analysis of intracellular levels of Her2 protein.
The human breast cancer cell lines SKBr3 were maintained in RPMI1640 medium supplemented with 10% FBS. 3000 cells in 100 μl of growth medium were plated per well in black, clear-bottom microtiter plates (Corning) and allowed to attach for at least 24 hours at 37° C. and 5% CO2. Compounds at different doses or vehicle (DMSO) were carefully added to the wells and incubated for 24 hours. The cells were washed twice with ice-cold Tris buffer saline (TBS) containing 0.1% Tween 20 (TBST) and fixed with ice-cold methanol. After washing with TBST, the plate was incubated at RT for 1 hour with SuperBlock (Pierce 37535) and overnight at 4° C. with the anti-Her-2 antibody (Santa Cruz Biotechnology). The plate was then washed with TBST and incubated at RT for 2 hours with an anti-rabbit HRP-linked antibody (Sigma A0545). The chemiluminescent substrate solution (Pierce 38040) was added and the plate was read 5 minutes later in an Analyst HT plate reader (Molecular Devices). Luminescence readings resulting from compound-treated cells versus untreated cells (vehicle treated) were quantified and plotted against compound concentrations to give the IC50 values (defined as concentration of compound required to degrade 50% of total Her2).

[5] = MCF7, Table 1, MCF-7 cells, 24 hours of compound treatment, read-out: Her2 degradation WB IC50
[6] = MCF7, 24 h, read-out: Her2 degradation WB IC50

| Compound | IC50 ([1]; Table 1, GM-cy3B 5 nM) [µM] | IC50 [2, 5] [µM] | IC50 [2, 6] [µM] | other results |
| --- | --- | --- | --- | --- |
| Cc1ccnc(NC2=CC(=O)C(=O)c3ccccc32)c1 [Compound 12] | < 0.39 | ~10 |  |  |
| NC(=O)C(=O)CC(=O)c1ccccc1NC1=CC(=O)C(=O)c2ccccc21 [Compound 39] | 4.2 | > 30 |  |  |
| O=C1C=C(N2CCNCC2)c2ccccc2C1=O [Compound 62] |  |  |  | IC50 [3]: > 20 µM; IC50 ([1]; Table 2, GM-cy3B 5 nM): 1.55 µM; IC50 [4]: 22.7 µM |
| O=C1C=C(Nc2ccc(Cl)cc2Cl)c2ccccc2C1=O [Compound 37] | 4.7 |  | ~30 |  |
| CCN(CC)C1=CC(=O)C(=O)c2ccccc21 [Compound 48] | 0.69 |  | 5 to 10 |  |
| O=C1C=C(Nc2cc3c(cc2Br)OCO3)c2ccccc2C1=O [Compound 65] |  |  |  | IC50 [3]: 3.66 µM; IC50 ([1]; Table 2, GM-cy3B 5 nM): 0.53 µM; IC50 [4]: 15.3 µM |
| Cc1cc(C)nc(NC2=CC(=O)C(=O)c3ccccc32)c1 [Compound 67] |  |  |  | IC50 [3]: 0.21 µM; IC50 ([1]; Table 2, GM-cy3B 5 nM): 0.64 µM; IC50 [4]: 11.4 µM |
| Cc1ccc(NC2=CC(=O)C(=O)c3ccccc32)c(C(=O)O)c1 [Compound 68] |  |  |  | IC50 [3]: > 20 µM; IC50 ([2]; MCF7, Table 2, values without asterisk, MCF-7 cells, 24 hours, read-out: IC50, Her2 degradation WB): > 30 µM |
| CCc1cccc(CC)c1NC1=CC(=O)C(=O)c2ccccc21 [Compound 34] | 3.55 |  | > 30 |  |
| Cc1ccc(NC2=CC(=O)C(=O)c3ccccc32)c(C)c1 [Compound 13] | 1.85 |  | < 5 |  |
| O=C1C=C(NCCCCC2CCCCC2)c2ccccc2C1=O [Compound 22] |  | > 30 |  | FP Assay IC50 ([1]; Table 1, GM-cy3B 5 nM): inactive |
| N#CCCCCNC1=CC(=O)C(=O)c2cccnc21 [Compound 10] |  | ~10 |  |  |
| O=C1C=C(Nc2ccc(Cl)cc2)c2ccccc2C1=O [Compound 19] | 0.68 |  | < 10 |  |
| CCOc1ccc(NC2=CC(=O)C(=O)c3ccccc32)cc1 [Compound 21] | 1 | ~10 |  |  |
| O=C1C=C(Nc2ccc(O)cc2)c2ccccc2C1=O [Compound 43] | < 0.39 |  | ~10 |  |
| CN(C1=CC(=O)C(=O)c2ccccc21)c1ccccc1 [Compound 18] | 0.39 |  | ~10 |  |
| CN1CCN(C2=CC(=O)C(=O)c3ccccc32)CC1 [Compound 47] | 0.39 | 5 to 10 |  |  |
| NC1=CC(=O)C(=O)c2cccnc21 [Compound 4] |  | > 20 |  |  |
| O=C1C=C(Nc2ccccc2C(=O)CC(=O)C(=O)Nc2ccc(Cl)c(Cl)c2)c2ccccc2C1=O [Compound 40] | 10.5 | > 30 |  |  |
| CC(N)CCCNC1=CC(=O)C(=O)c2cccnc21 (stereo not shown) [Compound 11] |  | 2.5 to 5 |  |  |
| O=C1C=C(Nc2ccccc2)c2ncccc2C1=O [Compound 1] |  | ~2.5 |  |  |
| O=C1C=C(Nc2ncccn2)c2ccccc2C1=O [Compound 14] | 0.45 | 1 to 10 |  |  |
| Cc1cccc(C)c1NC1=CC(=O)C(=O)c2ccccc21 [Compound 26] | 3.9 |  | > 10 |  |
| O=C1C=C(Nc2cc(Cl)ccc2Cl)c2ccccc2C1=O [Compound 33] | 3.06 | > 30 |  |  |
| CC(C)(C)OC(=O)N1CCN(C2=CC(=O)C(=O)c3ccccc32)CC1 [Compound 46] | 0.22 | 5 to 10 |  |  |

| Compound | IC50 ([1]; Table 1, GM-cy3B 5 nM) [µM] | IC50 [2, 5] [µM] | IC50 [2, 6] [µM] | other results |
| --- | --- | --- | --- | --- |
| O=C1C=C(Nc2cccc(Cl)c2)c2ccccc2C1=O [Compound 28] |  |  | > 30 |  |
| Cc1ccc(NC2=CC(=O)C(=O)c3ccccc32)cc1C [Compound 29] | 1.07 | < 10 |  |  |
| O=C1C=C(Nc2ccccc2)c2ccccc2C1=O [Compound 32] | 7.4 |  | < 30 |  |
| O=C1C=C(Nc2cccnc2)c2ccccc2C1=O [Compound 16] | 0.67 | ~10 |  |  |
| CC(C)c1cccc(C(C)C)c1NC1=CC(=O)C(=O)c2ccccc21 [Compound 44] | 1.73 | > 30 |  |  |
| CN(C)C1=C(Cl)C(=O)C(=O)c2cccnc21 [Compound 5] |  | > 20 |  |  |
| O=C1C=C(Nc2cccc(C(=O)O)c2)c2ccccc2C1=O [Compound 30] | 1.33 | > 30 |  |  |
| Cc1cccc(NC2=CC(=O)C(=O)c3ccccc32)c1 [Compound 41] | 1.06 |  | ≥ 10 |  |
| Cc1ccc(NC2=CC(=O)C(=O)c3ccccc32)cc1 [Compound 15] | 0.96 |  | ~10 |  |
| O=C1C(=O)c2cccnc2C(NCc2ccccc2)=C1Cl [Compound 3] |  | ~2.5 |  |  |
| Cc1ccc(C)c(NC2=CC(=O)C(=O)c3ccccc32)c1 [Compound 25] | 1.59 |  | > 30 |  |
| O=C1C=C(N2CCOCC2)c2ccccc2C1=O [Compound 23] | 0.63 |  | ~10 |  |
| COc1ccc(NC2=CC(=O)C(=O)c3ccccc32)c([N+](=O)[O-])c1 [Compound 52] | 0.23 | > 10 |  |  |
| C=CCN(CC=C)C1=CC(=O)C(=O)c2ccccc21 [Compound 24] | 2.19 | ~10 |  |  |
| O=C1C(=O)c2cccnc2C(NC2CC3CCC2C3)=C1Cl (stereo not shown) [Compound 2] |  | ~2.5 |  |  |
| O=C1C=C(NCCc2ccccc2)c2ccccc2C1=O [Compound 17] | 4 | ~10 |  |  |
| COc1cccc(NC2=CC(=O)C(=O)c3ccccc32)c1 [Compound 42] | 0.81 | ~10 |  |  |
| O=C1C=C(Nc2cccc(O)c2)c2ccccc2C1=O [Compound 20] | 0.6 | ~10 |  |  |
| Cc1cc(Br)ccc1NC1=CC(=O)C(=O)c2ccccc21 [Compound 35] | 3 | > 30 |  |  |
| O=C1C=C(Nc2cccc(Br)c2)c2ccccc2C1=O [Compound 27] |  | > 30 |  |  |
| O=C1C=C(Nc2ccc(Br)cc2)c2ccccc2C1=O [Compound 36] | 1.4 |  | ~30 |  |
| CCN(CC)C1=C(Cl)C(=O)C(=O)c2cccnc21 [Compound 6] |  | > 20 |  |  |
| NC1=CC(=O)C(=O)c2ccccc21 [Compound 31] | 2.18 | 10 to 30 |  |  |
| CCCCCCN(CCCCCC)C1=CC(=O)C(=O)c2ccccc21 [Compound 38] | 2.6 | ~30 |  |  |
